This passage reports IC50 results from US20240208934A1, “ULK1/2 INHIBITORS AND THEIR USE THEREOF” (LifeArc, priority 2021, published 2024).

The experiment deals with ULK. As to the kind of experiment: ULK radiometric assay (33P incorporation onto MBP substrate, glass fiber capture filter). As to conditions: ULK Biochemical activity; 20 uM ATP, 0.2 mg/mL MBP; averages of at least two independent experiments. The procedure, abridged:
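³³P transfer from 20 uM ATP onto 0.2 mg/mL MBP in Tris-HCl pH 7.5 with MgCl2, EGTA, BSA and β-mercaptoethanol, captured on glass fiber filters. Ten-point half-log dilutions at 10% DMSO final, duplicate wells normalized to DMSO controls; IC50 from four-parameter fit, averaged over ≥2 independent experiments.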

Bounds are passed on as bounds.

Turning to `Cc1cc2c(cc1Nc1ncc(C(F)(F)F)c(NCCCN3CCCCC3=O)n1)CNCC2` [Example 23, 6-methyl-7-[[4-[3-(2-oxo-1-piperidyl)propylamino]-5-(trifluoromethyl)pyrimidin-2-yl]amino]-3,4-dihydro-1H-isoquinoline], the IC50 was less than 200 nM.
As for `FC(F)(F)c1cnc(Nc2ccc(N3CCOCC3)cc2)nc1NCc1cn[nH]c1` [Example 92, N2-(4-morpholinophenyl)-N4-(1H-pyrazol-4-ylmethyl)-5-(trifluoromethyl)pyrimidine-2,4-diamine], the figure is not below 1000 nM; as for `CN1CCc2ccc(Nc3ncc(C4CC4)c(NC4CC4)n3)cc2C1` [Example 18, N4,5-dicyclopropyl-N2-(2-methyl-1,2,3,4-tetrahydroisoquinolin-7-yl)pyrimidine-2,4-diamine], less than 200 nM; as for `COc1ccc(N2CCNCC2)cc1Nc1ncc(C(F)(F)F)c(NCCCN2CCCCC2=O)n1` [Example 22, 4-[4-methoxy-3-[[4-[3-(2-oxo-1-piperidyl)propylamino]-5-(trifluoromethyl)pyrimidin-2-yl]amino]phenyl]piperazine], not below 1000 nM.
On to `CN(C)CCCN(C)c1nc(Nc2ccc3c(c2)CCNC3)ncc1C(F)(F)F` [Example 64, N4-[3-(dimethylamino)propyl]-N4-methyl-N2-(1,2,3,4-tetrahydroisoquinolin-6-yl)-5-(trifluoromethyl)pyrimidine-2,4-diamine], for which the half-maximal inhibitory concentration (IC50) lay within 200 to 1000 nM.
In turn, `CN1CCc2cc(Nc3ncc(C4CC4)c(NCCCN4CCCCC4=O)n3)ccc2C1` [Example 11, 1-(3-((5-Cyclopropyl-2-((2-methyl-1,2,3,4-tetrahydroisoquinolin-6-yl)amino)pyrimidin-4-yl)amino)propyl)piperidin-2-one] returned an IC50 of less than 200 nM.
As for `O=C1CCCCN1CCCNc1nc(Nc2cc(S(=O)(=O)N3CCNCC3)cc3c2OCC3)ncc1C(F)(F)F` [Example 52, 1-[3-[[2-[(5-Piperazin-1-ylsulfonyl-2,3-dihydrobenzofuran-7-yl)amino]-5-(trifluoromethyl)pyrimidin-4-yl]amino]propyl]piperidin-2-one], the figure is 200 to 1000 nM; as for `COc1cc2c(cc1Nc1ncc(C(F)(F)F)c(N3CCC(NC(C)=O)CC3)n1)CNCC2` [Example 71, N-[1-[2-[(6-methoxy-1,2,3,4-tetrahydroisoquinolin-7-yl)amino]-5-(trifluoromethyl)pyrimidin-4-yl]-4-piperidyl]acetamide], not below 1000 nM.
`FC(F)(F)c1cnc(Nc2ccc(N3CCOCC3)cc2)nc1NCC1CNCCO1` (stereo not shown) [Example 90, N2-(4-morpholinophenyl)-N4-(morpholin-2-ylmethyl)-5-(trifluoromethyl)pyrimidine-2,4-diamine] yielded a 50% inhibitory concentration (IC50) of 200 to 1000 nM.
`O=C1CCCCN1CCCNc1nc(Nc2cc3c(cc2Cl)CCNC3)ncc1C(F)(F)F` [Example 43, 1-[3-[[2-[(6-Chloro-1,2,3,4-tetrahydroisoquinolin-7-yl)amino]-5-(trifluoromethyl)pyrimidin-4-yl]amino]propyl]piperidin-2-one] showed an IC50 of less than 200 nM.
`COc1cc(C(=O)N(C)C)ccc1Nc1ncc(C(F)(F)F)c(NCCCN2CCCCC2=O)n1` [Example 40, 3-Methoxy-N,N-dimethyl-4-[[4-[3-(2-oxo-1-piperidyl)propylamino]-5-(trifluoromethyl)pyrimidin-2-yl]amino]benzamide] returned an IC50 not below 1000 nM.
Under `O=C1CCCN1CCCNc1nc(Nc2ccc3c(c2)CCNC3)ncc1C(F)(F)F` [Example 66, 1-[3-[[2-(1,2,3,4-tetrahydroisoquinolin-6-ylamino)-5-(trifluoromethyl)pyrimidin-4-yl]amino]propyl]pyrrolidin-2-one] stands less than 200 nM; under `O=C1CCCCN1CCCNc1nc(Nc2cc(O)ccc2Cl)ncc1C(F)(F)F` [Example 57, 1-[3-[[2-(2-Chloro-5-hydroxy-anilino)-5-(trifluoromethyl)pyrimidin-4-yl]amino]propyl]piperidin-2-one], 200 to 1000 nM.
